# Measured values: paper PMC7714403 (JCI Insight, 2020)
# Key:
# [1] = target: T1, AURKB (Homo sapiens, UniProt Q96GD4); test: KdELECT binding assay
# T1 construct: purchased Eurofins DiscoverX
# [2] = target: IRE1 (Homo sapiens, UniProt O75460); test: KiNativ, OCI cells live cell; type: cell-based; details: 2 h, labeling site Lys2, peptide […]
# [3] = target: NEK3 (Homo sapiens, UniProt P51956); test: KiNativ, OCI cells live cell; type: cell-based; details: 2 h, labeling site Activation Loop, peptide […]
# Sequence of NEK3 (P51956 whole entry): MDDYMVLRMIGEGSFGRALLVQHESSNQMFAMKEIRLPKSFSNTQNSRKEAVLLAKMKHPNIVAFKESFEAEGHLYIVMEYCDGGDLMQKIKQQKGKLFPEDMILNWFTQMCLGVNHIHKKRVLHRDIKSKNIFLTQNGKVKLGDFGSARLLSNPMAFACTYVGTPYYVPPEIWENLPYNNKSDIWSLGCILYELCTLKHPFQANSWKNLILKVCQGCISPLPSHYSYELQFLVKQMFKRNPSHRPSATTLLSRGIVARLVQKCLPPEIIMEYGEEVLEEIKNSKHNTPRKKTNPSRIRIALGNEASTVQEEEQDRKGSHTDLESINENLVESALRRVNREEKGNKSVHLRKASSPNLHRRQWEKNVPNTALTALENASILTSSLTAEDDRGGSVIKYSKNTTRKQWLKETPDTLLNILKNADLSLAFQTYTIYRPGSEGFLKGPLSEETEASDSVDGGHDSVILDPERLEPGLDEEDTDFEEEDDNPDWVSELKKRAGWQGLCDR
# Sequence of IRE1 (O75460 19-977): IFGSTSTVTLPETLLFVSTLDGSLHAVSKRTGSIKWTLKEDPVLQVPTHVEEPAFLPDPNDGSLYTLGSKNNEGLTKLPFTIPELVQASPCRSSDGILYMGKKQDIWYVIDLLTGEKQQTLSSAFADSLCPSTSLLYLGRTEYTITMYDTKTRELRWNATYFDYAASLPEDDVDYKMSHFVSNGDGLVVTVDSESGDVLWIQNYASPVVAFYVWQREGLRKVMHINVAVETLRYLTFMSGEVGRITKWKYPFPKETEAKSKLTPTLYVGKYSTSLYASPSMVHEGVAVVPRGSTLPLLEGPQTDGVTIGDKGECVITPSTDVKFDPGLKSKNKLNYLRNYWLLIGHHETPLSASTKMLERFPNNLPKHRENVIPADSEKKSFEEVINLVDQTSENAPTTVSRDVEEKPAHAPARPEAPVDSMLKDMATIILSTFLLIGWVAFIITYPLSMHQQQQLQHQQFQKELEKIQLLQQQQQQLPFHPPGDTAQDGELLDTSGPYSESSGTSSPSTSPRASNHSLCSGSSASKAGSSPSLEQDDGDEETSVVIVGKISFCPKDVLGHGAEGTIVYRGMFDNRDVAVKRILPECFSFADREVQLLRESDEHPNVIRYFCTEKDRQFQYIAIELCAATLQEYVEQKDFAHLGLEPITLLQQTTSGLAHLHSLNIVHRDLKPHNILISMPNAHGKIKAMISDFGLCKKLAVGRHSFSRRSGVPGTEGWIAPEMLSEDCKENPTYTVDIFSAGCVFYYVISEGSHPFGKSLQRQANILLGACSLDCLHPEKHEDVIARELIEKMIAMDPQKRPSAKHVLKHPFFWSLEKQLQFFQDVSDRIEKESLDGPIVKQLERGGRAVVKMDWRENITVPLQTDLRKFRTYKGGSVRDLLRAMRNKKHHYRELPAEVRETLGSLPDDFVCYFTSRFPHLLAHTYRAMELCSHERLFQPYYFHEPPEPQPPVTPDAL
# T1 sequence (Q96GD4 whole entry): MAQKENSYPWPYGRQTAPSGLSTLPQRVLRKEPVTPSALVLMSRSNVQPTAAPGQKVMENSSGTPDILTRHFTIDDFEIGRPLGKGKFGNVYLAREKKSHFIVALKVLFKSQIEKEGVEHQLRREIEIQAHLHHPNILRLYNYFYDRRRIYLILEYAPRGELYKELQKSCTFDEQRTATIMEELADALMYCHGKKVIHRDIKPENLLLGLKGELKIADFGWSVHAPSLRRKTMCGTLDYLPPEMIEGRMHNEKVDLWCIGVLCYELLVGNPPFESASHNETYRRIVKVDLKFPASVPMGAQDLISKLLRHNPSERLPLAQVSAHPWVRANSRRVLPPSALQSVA
smiles,measurement,setting,value
CN1CCN(Cc2ccc(Nc3ncc(Cl)c(Nc4ccccc4S(=O)(=O)N(C)C)n3)cc2)CC1 [TP-0903],Kd,[1],< 5 nM
same,inhibition at 0.1 µM,[2],33.5%
same,inhibition at 0.1 µM,[3],-11.9%
